In PubChem BioAssay (NCI):
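Step 1: Grow cells in 96-well plates. Step 2: Expose to compound for 48 hours at 5 concentrations. Step 3: Interpolate endpoints linearly; if unreached, use highest concentration. Definition used: TGI = concentration required for complete inhibition of growth.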

Key:
Test in all cases: NCI-60 cell line screen, 48 h
[1] = system: HCT-15 colon
[2] = system: NCI-H460 lung
[3] = system: SW-620 colon
[4] = system: HCC-2998 colon
[5] = system: NCI-H226 lung
[6] = system: A549 NSCLC
[7] = system: TK-10 renal
[8] = system: MALME-3M melanoma
[9] = system: DU-145 prostate
[10] = system: HL-60(TB) leukemia
[11] = system: HOP-92 NSCLC
[12] = system: MDA-MB-231 breast
[13] = system: SR leukemia
[14] = system: OVCAR-8 ovarian
[15] = system: NCI/ADR-RES ovarian
[16] = system: HT29 colon
[17] = system: IGROV1 ovarian
[18] = system: OVCAR-5 ovarian
[19] = system: SNB-75 CNS
[20] = system: NCI-H522 lung
[21] = system: SN12C renal
[22] = system: COLO 205 colon
[23] = system: UO-31 renal
[24] = system: T-47D breast
[25] = system: K-562 leukemia
[26] = system: A498 renal
[27] = system: U251 CNS
[28] = system: 786-0 renal
[29] = system: M14 melanoma
[30] = system: SNB-19 CNS
[31] = system: RXF 393 renal
[32] = system: HS 578T breast
[33] = system: UACC-62 melanoma
[34] = system: CAKI-1 renal
[35] = system: BT-549 breast
[36] = system: MDA-MB-435
[37] = system: SK-OV-3 ovarian
[38] = system: PC-3 prostate
[39] = system: SF-295 CNS
[40] = system: NCI-H23 lung
[41] = system: HCT-116 colon
[42] = system: SK-MEL-28 melanoma
[43] = system: OVCAR-4 ovarian
[44] = system: SK-MEL-5 melanoma
[45] = system: SF-268 CNS
[46] = system: MDA-N
[47] = system: HOP-62 NSCLC
[48] = system: MCF7 breast
[49] = system: EKVX NSCLC
[50] = system: MOLT-4 leukemia
[51] = system: ACHN renal
[52] = system: UACC-257 melanoma
[53] = system: KM12 colon
[54] = system: CCRF-CEM leukemia
[55] = system: LOX IMVI melanoma
[56] = system: OVCAR-3 ovarian
[57] = system: SK-MEL-2 melanoma
[58] = system: SF-539 CNS
[59] = system: RPMI-8226 leukemia

Question: Which results are given for `CC1(C)COP(=S)(c2ccccn2)O[C@@H]1c1ccccc1` (stereo partly specified)?
Answer: TGI [1]: > 100 µM; TGI [2]: > 100 µM; TGI [3]: > 100 µM; TGI [4]: > 100 µM; TGI [5]: > 100 µM; TGI [6]: > 100 µM; TGI [7]: > 100 µM; TGI [8]: > 100 µM; TGI [9]: > 100 µM; TGI [10]: > 100 µM; TGI [11]: > 100 µM; TGI [12]: > 100 µM; TGI [13]: > 100 µM; TGI [14]: > 100 µM; TGI [15]: > 100 µM; TGI [16]: > 100 µM; TGI [17]: > 100 µM; TGI [18]: > 100 µM; TGI [19]: > 100 µM; TGI [20]: > 100 µM; TGI [21]: > 100 µM; TGI [22]: > 100 µM; TGI [23]: > 100 µM; TGI [24]: > 100 µM; TGI [25]: > 100 µM; TGI [26]: > 100 µM; TGI [27]: > 100 µM; TGI [28]: > 100 µM; TGI [29]: > 100 µM; TGI [30]: > 100 µM; TGI [31]: > 100 µM; TGI [32]: > 100 µM; TGI [33]: > 100 µM; TGI [34]: > 100 µM; TGI [35]: > 100 µM; TGI [36]: > 100 µM; TGI [37]: > 100 µM; TGI [38]: > 100 µM; TGI [39]: > 100 µM; TGI [40]: > 100 µM; TGI [41]: > 100 µM; TGI [42]: > 100 µM; TGI [43]: > 100 µM; TGI [44]: 91.1 µM; TGI [45]: > 100 µM; TGI [46]: > 100 µM; TGI [47]: > 100 µM; TGI [48]: > 100 µM; TGI [49]: > 100 µM; TGI [50]: > 100 µM; TGI [51]: > 100 µM; TGI [52]: > 100 µM; TGI [53]: > 100 µM; TGI [54]: > 100 µM; TGI [55]: > 100 µM

Question: How did the TGI [1] turn out when `CC1(C)CC(=O)c2c(nc3c4c([nH]c(-c5ccc([N+](=O)[O-])cc5)c24)CC(C)(C)C3)C1` was run?
Answer: > 100 µM

Question: What about the TGI [2] of the same compound?
Answer: > 100 µM

Question: And the TGI [3]?
Answer: > 100 µM

Question: And the TGI [56]?
Answer: > 100 µM

Question: What about the TGI [57] of the same compound?
Answer: > 100 µM

Question: And the TGI [4]?
Answer: > 100 µM

Question: What about the TGI [5] of the same compound?
Answer: > 100 µM

Question: And the TGI [6]?
Answer: > 100 µM

Question: What about the TGI [7] of the same compound?
Answer: > 100 µM

Question: What about the TGI [8] of the same compound?
Answer: > 100 µM

Question: What about the TGI [9] of the same compound?
Answer: > 100 µM

Question: And the TGI [10]?
Answer: > 100 µM

Question: And the TGI [11]?
Answer: > 100 µM

Question: What about the TGI [12] of the same compound?
Answer: > 100 µM

Question: And the TGI [13]?
Answer: 47.9 µM

Question: What about the TGI [14] of the same compound?
Answer: > 100 µM

Question: What about the TGI [15] of the same compound?
Answer: > 100 µM

Question: And the TGI [16]?
Answer: > 100 µM

Question: What about the TGI [18] of the same compound?
Answer: > 100 µM

Question: And the TGI [19]?
Answer: > 100 µM

Question: And the TGI [20]?
Answer: > 100 µM

Question: And the TGI [21]?
Answer: > 100 µM

Question: What about the TGI [22] of the same compound?
Answer: 59 µM

Question: And the TGI [58]?
Answer: > 100 µM

Question: What about the TGI [23] of the same compound?
Answer: > 100 µM

Question: And the TGI [24]?
Answer: > 100 µM

Question: And the TGI [25]?
Answer: > 100 µM

Question: And the TGI [26]?
Answer: 44.6 µM

Question: What about the TGI [27] of the same compound?
Answer: > 100 µM

Question: What about the TGI [28] of the same compound?
Answer: > 100 µM

Question: And the TGI [29]?
Answer: > 100 µM

Question: And the TGI [30]?
Answer: > 100 µM

Question: What about the TGI [31] of the same compound?
Answer: > 100 µM

Question: What about the TGI [32] of the same compound?
Answer: > 100 µM

Question: What about the TGI [33] of the same compound?
Answer: 93.4 µM

Question: What about the TGI [34] of the same compound?
Answer: > 100 µM

Question: What about the TGI [35] of the same compound?
Answer: > 100 µM

Question: And the TGI [36]?
Answer: > 100 µM

Question: And the TGI [37]?
Answer: > 100 µM

Question: What about the TGI [38] of the same compound?
Answer: > 100 µM

Question: And the TGI [39]?
Answer: > 100 µM

Question: What about the TGI [40] of the same compound?
Answer: > 100 µM

Question: What about the TGI [41] of the same compound?
Answer: > 100 µM

Question: And the TGI [42]?
Answer: > 100 µM

Question: What about the TGI [43] of the same compound?
Answer: > 100 µM

Question: What about the TGI [44] of the same compound?
Answer: > 100 µM

Question: And the TGI [45]?
Answer: > 100 µM

Question: And the TGI [46]?
Answer: > 100 µM

Question: And the TGI [47]?
Answer: > 100 µM

Question: What about the TGI [48] of the same compound?
Answer: > 100 µM

Question: And the TGI [49]?
Answer: > 100 µM

Question: And the TGI [50]?
Answer: > 100 µM

Question: And the TGI [51]?
Answer: > 100 µM

Question: And the TGI [52]?
Answer: > 100 µM

Question: What about the TGI [53] of the same compound?
Answer: > 100 µM

Question: What about the TGI [54] of the same compound?
Answer: > 100 µM

Question: And the TGI [55]?
Answer: > 100 µM

Question: `Cc1ccc(-c2nc3cc(N4CCN(C)CC4)c(F)cc3[nH]2)cc1` was tested. Which TGI [1] did it give?
Answer: 21 µM

Question: And the TGI [2]?
Answer: 32.6 µM

Question: What about the TGI [3] of the same compound?
Answer: > 100 µM

Question: And the TGI [57]?
Answer: 32 µM

Question: What about the TGI [4] of the same compound?
Answer: 24.6 µM

Question: And the TGI [5]?
Answer: 38.3 µM

Question: What about the TGI [6] of the same compound?
Answer: 49 µM

Question: What about the TGI [7] of the same compound?
Answer: > 100 µM

Question: And the TGI [8]?
Answer: 31.2 µM

Question: And the TGI [9]?
Answer: > 100 µM

Question: And the TGI [10]?
Answer: 46 µM

Question: What about the TGI [11] of the same compound?
Answer: > 100 µM

Question: And the TGI [59]?
Answer: 75.5 µM

Question: What about the TGI [12] of the same compound?
Answer: > 100 µM

Question: What about the TGI [13] of the same compound?
Answer: > 100 µM

Question: What about the TGI [15] of the same compound?
Answer: > 100 µM

Question: And the TGI [17]?
Answer: 90 µM

Question: What about the TGI [18] of the same compound?
Answer: 60.2 µM

Question: What about the TGI [20] of the same compound?
Answer: 31.9 µM

Question: And the TGI [21]?
Answer: > 100 µM

Question: And the TGI [22]?
Answer: 34.5 µM

Question: What about the TGI [23] of the same compound?
Answer: 27.4 µM

Question: And the TGI [24]?
Answer: 50.7 µM

Question: And the TGI [25]?
Answer: > 100 µM

Question: What about the TGI [26] of the same compound?
Answer: 91.4 µM

Question: And the TGI [27]?
Answer: > 100 µM

Question: And the TGI [28]?
Answer: 39 µM

Question: What about the TGI [29] of the same compound?
Answer: 31 µM

Question: And the TGI [30]?
Answer: 58.9 µM

Question: And the TGI [31]?
Answer: 38.4 µM

Question: And the TGI [32]?
Answer: 29.1 µM

Question: What about the TGI [33] of the same compound?
Answer: 31.3 µM

Question: What about the TGI [34] of the same compound?
Answer: > 100 µM

Question: And the TGI [35]?
Answer: 55.8 µM

Question: And the TGI [36]?
Answer: 48.1 µM

Question: What about the TGI [37] of the same compound?
Answer: 57.7 µM

Question: What about the TGI [38] of the same compound?
Answer: > 100 µM

Question: And the TGI [39]?
Answer: 30.4 µM

Question: What about the TGI [40] of the same compound?
Answer: > 100 µM

Question: What about the TGI [41] of the same compound?
Answer: 50 µM

Question: And the TGI [42]?
Answer: 61.3 µM

Question: What about the TGI [43] of the same compound?
Answer: 59.3 µM

Question: And the TGI [44]?
Answer: 25.1 µM

Question: What about the TGI [45] of the same compound?
Answer: 43.6 µM

Question: And the TGI [46]?
Answer: 95.7 µM

Question: What about the TGI [47] of the same compound?
Answer: 29.3 µM

Question: And the TGI [48]?
Answer: 30.3 µM

Question: And the TGI [49]?
Answer: 70 µM

Question: And the TGI [50]?
Answer: > 100 µM

Question: What about the TGI [51] of the same compound?
Answer: 70.5 µM

Question: What about the TGI [52] of the same compound?
Answer: 34.3 µM

Question: And the TGI [53]?
Answer: 27 µM

Question: And the TGI [54]?
Answer: > 100 µM

Question: What about the TGI [55] of the same compound?
Answer: 94.3 µM
